Here are results for 71 compounds from ChEMBL document CHEMBL4482324, “Ash1l inhibitors and methods of treatment therewith” (2017).

Calls of active or inactive are those of the source. The rule behind the calls is not given here.

The nature of series [1]: Effect on Meis1 gene expression in Hoxa9/Meis1 transformed mouse HM2 cells at 6 to 12 uM by quantitative RT-PCR analysis. Format: ADME.
A short description of series [2]: Effect on HOX9 gene expression in Hoxa9/Meis1 transformed mouse HM2 cells at 6 to 12 uM by quantitative RT-PCR analysis. Format: ADME.
A further series relates to MOLM-13. Put plainly: Cytotoxicity in human MOLM13 cells assessed as reduction in cell viability incubated for 12 days with fresh compound replacement for every 4 days by MTT assay. Format: functional. Background: Tetrazolium dyes change colour on reduction, which living cells bring about.
For series [3], the target named is Histone-lysine N-methyltransferase ASH1L (Mus musculus) (UniProt Q99MY8). Briefly: Inhibition of ASH1L in MLL-AF9 transformed mouse MA9 cells assessed as downregulation of HOX9 gene expression at 6 to 12 uM by quantitative RT-PCR analysis.
The target is the same in series [4]. Put plainly: Inhibition of ASH1L in MLL-AF9 transformed mouse MA9 cells assessed as downregulation of Meis1 gene expression at 6 to 12 uM by quantitative RT-PCR analysis.
Series [5] in a line: Cytotoxicity in MLL-AF9 transformed mouse MA9 cells assessed as reduction in cell viability incubated for 12 days with fresh compound replacement for every 4 days by MTT assay. Format: functional.
Series [6] addresses Histone-lysine N-methyltransferase ASH1L (Homo sapiens, UniProt Q9NR48). Put plainly: Inhibition of MOCR-fused ASH1L SET-BAH ( 2069 to 2833 amino acids) (unknown origin) expressed as in Escherichia coli BL21 (DE3) T1R cells using SAM and chicken mono/dinucleosomes incubated for 1 hr by scintillation counting assay.
Series [7] can be described thus: Effect on HOX7 gene expression in Hoxa9/Meis1 transformed mouse HM2 cells at 6 to 12 uM by quantitative RT-PCR analysis. Format: ADME.
Series [8] is described as follows: Cytotoxicity in Hoxa9/Meis1 transformed mouse HM2 cells assessed as reduction in cell viability incubated for 12 days with fresh compound replacement for every 4 days by MTT assay. Format: cell-based.
Series [9] has as its target Histone-lysine N-methyltransferase ASH1L (Mus musculus) (UniProt Q99MY8). Briefly: Inhibition of ASH1L in MLL-AF9 transformed mouse MA9 cells assessed as downregulation of HOX10 gene expression at 6 to 12 uM by quantitative RT-PCR analysis.
Series [10] has the same target. Briefly: Inhibition of ASH1L in MLL-AF9 transformed mouse MA9 cells assessed as downregulation of HOX7 gene expression at 6 to 12 uM by quantitative RT-PCR analysis.
Another series deals with MV4-11. Put plainly: Cytotoxicity in human MV4-11 cells assessed as reduction in cell viability incubated for 12 days with fresh compound replacement for every 4 days by MTT assay. Format: functional.
The nature of series [11]: Effect on HOX10 gene expression in Hoxa9/Meis1 transformed mouse HM2 cells at 6 to 12 uM by quantitative RT-PCR analysis. Format: ADME.

`NC(=S)c1cccc(-c2c[nH]c3ccc(O)cc23)c1`: the Activity result in [1], in [2], in [7] and in series [11] was “Non-Toxic” in each case. In addition, the GI50 came to 38 µM in the series on MOLM-13, 43 µM in series [5] and 27 µM with MV4-11. The inhibition result in series [3], in [4], in series [9] and in series [10] was “inactive” throughout. This compound also displayed an IC50 in series [6] of more than 100 µM. In [8], the GI50 at 288 h was found to be 62 µM. `NC(=O)c1cccc(-c2cn(CC(CF)CF)c3cc(N)ccc23)c1` yielded an IC50 in series [6] of less than 20 µM. Same read-out and setting: the result for `NC(=S)c1cccc(-c2cn(CCC3CC3)c3cc(CO)ccc23)c1` reads less than 20 µM; that for `CS(=O)(=O)N1CCC(n2cc(-c3cccc(C(N)=S)c3)c3ccc(CNC(=O)Cc4[nH]cc5ccccc45)cc32)CC1`, less than 20 µM. Same read-out and setting: the figure for `NC(=S)c1cccc(-c2cn(CCC(F)F)c3cc4c(cc23)CCNC4)c1` is less than 20 µM; for `NC(=S)c1cccc(-c2cccc(OCc3ccccc3)c2)c1` it is more than 100 µM. On the same count and under the same terms, the figure for `NCc1ccc2c(-c3cccc(C(N)=S)c3)c[nH]c2c1` is 36 µM.

In turn, `CS(=O)(=O)N1CCC(n2cc(-c3cccc(C(N)=S)c3)c3ccc(CNC(=O)C4CNC4)cc32)CC1` gave an IC50 in [6] of less than 20 µM. With `CSCCn1cc(-c2cccc(C(N)=S)c2)c2ccccc21`, in series [6], the IC50 is more than 100 µM. With `Cc1cc2c(-c3cccc(C(N)=S)c3)ccc(O)c2[nH]1`, the IC50 in series [6] was 20 to 100 µM. `CCCCn1cnc(CC(=O)NCc2ccc3c(-c4cccc(C(N)=S)c4)cn(C4CCOCC4)c3c2)c1` had a 50% inhibitory concentration (IC50) in [6] of less than 20 µM. Turning to `NC(=S)c1cccc(-c2cn(CC(F)(F)F)c3cc(NCC(F)(F)F)ccc23)c1`, the half-inhibitory concentration (IC50) in [6] was less than 20 µM. On the same count and under the same terms, the result for `NC(=O)C1CCN(Cc2ccc3c(-c4cccc(C(N)=S)c4)cn(CCCC(F)(F)F)c3c2)CC1` reads 20 to 100 µM.

On to `CS(=O)(=O)N1CCC(n2cc(-c3cccc(C(N)=S)c3)c3cc(F)ccc32)CC1`, for which the IC50 in [6] was 20 to 100 µM. Still for that read-out and setting: the result for `NC(=S)c1cccc(-c2ccc(S(N)(=O)=O)cc2)c1` reads more than 100 µM. Still for that read-out and setting: the figure for `NC(=S)c1cccc(-c2cn(CC3CC3(F)F)c3cc(N)ccc23)c1` (stereo not drawn) is less than 20 µM; for `NC(=S)c1cccc(-c2cccc3c2ccn3CO)c1` it is 20 to 100 µM; for `NC(=S)c1cccc(-c2ccc(CCC(F)F)c3[nH]ccc23)c1` it is less than 20 µM. Same read-out and setting: the figure for `CSCCn1cc(-c2cccc(C(N)=S)c2)c2ccc(N)cc21` is less than 20 µM; for `NC(=S)c1cccc(-c2cn(CCC(F)F)c3cc(NC(=O)CC4CC4)ccc23)c1` it is less than 20 µM; for `NC(=S)c1cccc(-c2cccc3[nH]ccc23)c1` it is 20 to 100 µM. As to `NC(=S)c1cccc(-c2c[nH]c3cccnc23)c1`, the IC50 in series [6] is more than 100 µM. The same measure, in the same setting: the figure for `NC(=S)c1cccc(-c2cn(CCCC(F)(F)F)c3cc(CNCc4cccnc4)ccc23)c1` is less than 20 µM; for `NC(=S)c1cccc(-c2cn(C3CCCCC3O)c3cc(CO)ccc23)c1` (stereo not drawn) it is less than 20 µM. `NC(=S)c1cccc(-c2cccc3[nH]ccc23)n1` came in with an IC50 in series [6] of more than 100 µM. On the same count and under the same terms, the figure for `Cc1cc(O)ccc1-c1cncc(C(N)=S)c1` is more than 100 µM. In turn, `NC(=S)c1cc(-c2ccc(O)cc2)ccc1F` returned an IC50 in series [6] of more than 100 µM. The same measure, in the same setting: the result for `Cc1c(O)ccc(-c2cncc(C(N)=S)c2)c1C` reads more than 100 µM; that for `NC(=S)c1cccc(-c2cn(CCC(F)F)c3cc(CNC(=O)C(F)(F)F)ccc23)c1`, less than 20 µM; that for `NC(=S)c1cccc(-c2cn(C3CCN(S(N)(=O)=O)CC3)c3cc(N)ccc23)c1`, less than 20 µM. Still for that read-out and setting: the result for `NC(=S)c1cccc(-c2cn(CCCC(F)(F)F)c3cc(CNC(=O)c4c[nH]cn4)ccc23)c1` reads less than 20 µM; that for `NC(=S)c1cccc(-c2cn(CC(C(F)F)C(F)F)c3cc(N)ccc23)c1`, less than 20 µM. On the same count and under the same terms, the figure for `NC(=S)c1cc(-c2cn(CCC(F)F)c3cc(CO)ccc23)c[nH]1` is less than 20 µM. `NC(=S)c1cccc(-c2ccc(O)cc2F)c1` registered an IC50 in [6] of more than 100 µM.

The compound `NC(=S)c1cccc(-c2cn(CC(O)(CC(F)(F)F)CC(F)(F)F)c3cc(N)ccc23)c1` showed an IC50 in [6] of less than 20 µM. The same measure, in the same setting: the result for `NC(=S)c1cccc(-c2cn(CC(CF)CF)c3cc(O)ccc23)c1` reads less than 20 µM; that for `NC(=S)c1cc(O)cc(-c2cn(CCCC(F)(F)F)c3cc(N)ccc23)c1`, 20 to 100 µM. For `CNc1ccc(-c2cccc3[nH]ccc23)cc1C(N)=S`, the IC50 in [6] was more than 100 µM.

`NC(=S)c1cc(-c2ccc(O)cc2)cs1` yielded an IC50 in series [6] of more than 100 µM. Compound `CS(=O)(=O)N1CCC(n2cc(-c3cccc(C(N)=S)c3)c3ccc(CNC(=O)Nc4cc[nH]n4)cc32)CC1` gave an IC50 in series [6] of less than 20 µM. In series [6], `NC(=S)c1cccc(-c2cn(CC3(F)CC3)c3cc(CO)ccc23)c1` yielded an IC50 of less than 20 µM. With `NC(=S)c1cccc(-c2cn(C3CCNCC3)c3cc(N)ccc23)c1`, in series [6], the IC50 was less than 20 µM. Same read-out and setting: the result for `NC(=S)c1cccc(-c2cn(CCO)c3cc(N)ccc23)c1` reads 20 to 100 µM; that for `Cn1cc(-c2cccc(C(N)=S)c2)c2ccccc21`, 20 to 100 µM. The compound `NC(=S)c1cccc(-c2cn(CC(O)C(F)(F)F)c3cc(CO)ccc23)c1` (stereo not drawn) came in with an IC50 in series [6] of less than 20 µM. The same measure, in the same setting: the result for `NC(=S)c1cccc(-c2cn(CCCC(F)(F)F)c3cc(CN4CCOCC4)ccc23)c1` reads 20 to 100 µM; that for `CCCS(=O)(=O)N1CCC(n2cc(-c3cccc(C(N)=S)c3)c3ccc(CNC(=O)CCCCc4cccc5c4C(=O)N(C4CCC(=O)NC4=O)C5=O)cc32)CC1` (stereo not drawn), less than 20 µM; that for `NC(=S)c1ccc(N)c(-c2cccc3[nH]ccc23)c1`, more than 100 µM. With `NC(=S)c1ccc2cc[nH]c2c1`, the IC50 in series [6] is more than 100 µM. Still for that read-out and setting: the figure for `COCc1cc2c(-c3cccc(C(N)=S)c3)ccc(O)c2[nH]1` is 20 to 100 µM; for `NC(=S)c1cccc(-c2cn(CCC(F)F)c3cc(C(O)CO)ccc23)c1` (stereo not drawn) it is less than 20 µM. `NC(=S)c1cccc(-c2cn(CCCC(F)(F)F)c3cc(N)ccc23)c1` had an IC50 in [6] of less than 20 µM. Still for that read-out and setting: the figure for `NC(=S)c1cccc(-c2cn(CC(CF)C(F)F)c3cc(N)ccc23)c1` (stereo not drawn) is less than 20 µM. The compound `CSC(=N)c1cccc(-c2ccccc2)c1` displayed an IC50 in series [6] of more than 100 µM.

Compound `NC(=S)c1cccc(-c2cn(CC(CF)CF)c3cc(NC(CO)CO)ccc23)c1` returned a 50% inhibitory concentration (IC50) in series [6] of less than 20 µM. On the same count and under the same terms, the result for `NCc1ccc2c(-c3cccc(C(N)=S)c3)cn(C3CCOCC3)c2c1` reads less than 20 µM. In the case of `NC(=S)c1cccc(-c2cccc3[nH]ncc23)n1`, the IC50 in [6] is more than 100 µM. Still for that read-out and setting: the figure for `NC(=S)c1cccc(-c2cn(CC3CCC3)c3cc(CO)ccc23)c1` is less than 20 µM; for `NC(=S)c1cccc(-c2cn(CC(CF)CF)c3cc(CF)ccc23)c1` it is less than 20 µM; for `CS(=O)(=O)N1CCC(n2cc(-c3cccc(C(N)=S)c3)c3ccc(Nc4nccs4)cc32)CC1` it is less than 20 µM. Still for that read-out and setting: the figure for `N#Cc1cccc(-c2cn(CC(CO)C(F)F)c3cc(N)ccc23)c1` (stereo not drawn) is less than 20 µM. Same read-out and setting: the result for `COc1ccc(-c2cccc(C(N)=S)c2)cc1` reads more than 100 µM; that for `NCc1ccc(-c2cccc(C(N)=S)c2)cc1`, more than 100 µM; that for `CCCNc1nnc(NCc2ccc3c(-c4cccc(C(N)=S)c4)cn(C4CCN(S(C)(=O)=O)CC4)c3c2)s1`, less than 20 µM. `NC(=S)c1cccc(-c2cc(C(F)(F)F)cc3[nH]ccc23)c1`: in series [6], the IC50 lay in the range of 20 to 100 µM. The same measure, in the same setting: the figure for `NC(=S)c1cccc(-c2cn(C3CCN(S(=O)(=O)C(F)(F)F)CC3)c3cc(CNC(=O)Cc4ccc[nH]4)ccc23)c1` is less than 20 µM.

The compound `NC(=S)c1cccc(-c2cccc(O)c2)c1` had an IC50 in series [6] of more than 100 µM. In series [6], `NC(=S)c1cc(-c2cn(CCC(F)F)c3cc(CO)ccc23)ccc1F` displayed an IC50 of less than 20 µM. In turn, `NC(=S)c1cc(-c2cccc3[nH]ccc23)ccc1O` had an IC50 in [6] of more than 100 µM. Same read-out and setting: the figure for `NC(=S)c1ccnc(-n2cccc2)c1` is more than 100 µM; for `NC(=S)c1cncc(-c2cccc3[nH]ccc23)c1` it is more than 100 µM.

The GI50 is the concentration that inhibits growth by half. One may read the IC50 as the midpoint of a concentration-inhibition curve. A high value points to weaker potency.
